The results in this text go back to patent US10774064B2 (Cadent Therapeutics, Inc., priority 2016, dated 2020).

In this experiment the target is T1, small-conductance Ca2+-activated K+ channels (SK channels, subtype 2) (Homo sapiens, UniProt Q9H2S1).
T1 construct: expressed in transfected cells; host or cells: HEK293
The experiment can be described thus: whole-cell patch-clamp of ionic current through SK2 channels in HEK293 cells (SC100). It is filed as cell-based. To be noted: whole-cell patch-clamp, HEK293 cells expressing SK2 channels; concentration that increases the basal current by 100%. A digest of the protocol: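 SC100, the concentration doubling basal current (a 100% increase), was taken from SK2 currents recorded by whole-cell patch-clamp in SK2-expressing HEK293 cells.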
On the technique in general: The patch-clamp technique gives a direct electrical read-out from membranes.

As to `C/C(=N\O)Nc1cc(NC2CCC(F)(F)CC2)nc(-c2nc(C)no2)n1` [NSSy5830, (E)-N-(6-((4,4-difluorocyclohexyl)amino)-2-(3-methyl-1,2,4-oxadiazol-5-yl)pyrimidin-4-yl)-N′-hydroxyacetimidamide], the “SC100 (μM)” value is “+ (+ means >1 uM)”. In the case of `Cc1nsc(-c2nc(NC3CCC(F)(F)CC3)cc(N3CCOCC3)n2)n1` [NSSy5832], the “SC100 (μM)” value is given as “+ (+ means >1 uM)”. As for `Cc1noc(-c2nc(NC3CCC(F)(F)CC3)cc(N3CCOCC3)n2)n1` [NSSy5835, N-(4,4-difluorocyclohexyl)-2-(3-methyl-1,2,4-oxadiazol-5-yl)-6-morpholinopyrimidin-4-amine], the entry is “+ (+ means >1 uM)”. For the compound `Cc1csc(-c2cc(N3CCN4C(=O)OC[C@@H]4C3)cc(NC3CCC(F)(F)CC3)n2)n1` [NSSy5837], the “SC100 (μM)” value is “+++ (+++ means <200 nM)”.

On to `Cc1csc(-c2cc(N3CCN4C(=O)OC[C@H]4C3)cc(NC3CCC(F)(F)CC3)n2)n1` [NSSy5838], for which the “SC100 (μM)” value was “+++ (+++ means <200 nM)”. As for `Cc1ccn(-c2cc(C(F)F)cc(NC3CCC(F)(F)CC3)n2)n1` [NSSy5839, N-(4,4-difluorocyclohexyl)-4-(difluoromethyl)-6-(3-methyl-1H-pyrazol-1-yl)pyridin-2-amine], the entry is “++ (++ means 200 nM-1000 nM)”; as for `Cc1ccn(-c2cc(C(C)(C)O)cc(NC3CCC(F)(F)CC3)n2)n1` [NSSy5846], “++ (++ means 200 nM-1000 nM)”. As for `N#Cc1ccn(-c2nc(NC3CCC(F)(F)CC3)cc(N3CC4(COC4)C3)n2)n1` [NSSy5847], the entry is “+ (+ means >1 uM)”; as for `N#CCc1ccn(-c2nc(NC3CCC(F)(F)CC3)cc(N3CC4(COC4)C3)n2)n1` [NSSy5848], “+ (+ means >1 uM)”; as for `COC(=O)N1CC(Oc2cc(NC3CC=C(C)CC3)nc(-c3nc(C)cs3)n2)C1` (stereo not shown) [NSSy5854, methyl 3-((6-((4-methylcyclohex-3-en-1-yl)amino)-2-(4-methylthiazol-2-yl)pyrimidin-4-yl)oxy)azetidine-1-carboxylate], “++ (++ means 200 nM-1000 nM)”. Under `COC(=O)N1CC(Oc2cc(NC3CCC(F)(F)CC3)nc(-c3nc(C)ns3)n2)C1` [NSSy5857] stands “++ (++ means 200 nM-1000 nM)”; under `COCc1cc(NC2CCC(F)(F)CC2)nc(-n2ccc(C)n2)c1` [NSSy5860], “++ (++ means 200 nM-1000 nM)”; under `Cc1ccn(-c2cc(COc3ncc(F)cn3)cc(NC3CCC(F)(F)CC3)n2)n1` [NSSy5861], “++ (++ means 200 nM-1000 nM)”. Turning to `COC(=O)N1CC(Oc2nc(-c3nc(C)cs3)nc(NC3CCC(F)(F)CC3)c2Br)C1` [NSSy5868, methyl 3-((5-bromo-6-((4,4-difluorocyclohexyl)amino)-2-(4-methylthiazol-2-yl)pyrimidin-4-yl)oxy)azetidine-1-carboxylate], the “SC100 (μM)” value is recorded as “+++ (+++ means <200 nM)”. As for `Cc1ccn(-c2nc(NC3CCC(F)(F)CC3)cc(OC3CC(O)C3)n2)n1` (stereo not shown) [NSSy5879, 3-((6-((4,4-difluorocyclohexyl)amino)-2-(3-methyl-1H-pyrazol-1-yl)pyrimidin-4-yl)oxy)cyclobutan-1-ol], the entry is “++ (++ means 200 nM-1000 nM)”. Under `COC(=O)N1CC(Oc2cc(NC3CCC(F)(F)CC3)nc(-c3nc(C)no3)n2)C1` [NSSy5887, methyl 3-((6-((4,4-difluorocyclohexyl)amino)-2-(3-methyl-1,2,4-oxadiazol-5-yl)pyrimidin-4-yl)oxy)azetidine-1-carboxylate] stands “+ (+ means >1 uM)”; under `Cc1ccn(-c2nc(NC3CCC(F)(F)CC3)cc(OC3CC(F)(F)C3)n2)n1` [NSSy5893, 6-(3,3-difluorocyclobutoxy)-N-(4,4-difluorocyclohexyl)-2-(3-methyl-1H-pyrazol-1-yl)pyrimidin-4-amine], “++ (++ means 200 nM-1000 nM)”.

On to `Cc1ccn(-c2nc(NC3CCC(F)(F)CC3)cc(OC3CC(C)(O)C3)n2)n1` (stereo not shown) [NSSy5902, 3-((6-((4,4-difluorocyclohexyl)amino)-2-(3-methyl-1H-pyrazol-1-yl)pyrimidin-4-yl)oxy)-1-methylcyclobutan-1-ol], for which the “SC100 (μM)” value was “++ (++ means 200 nM-1000 nM)”. On to `COCc1cc(NC2CCC(F)(F)CC2)nc(-c2nc(C)cs2)c1` [NSSy5933, N-(4,4-difluorocyclohexyl)-4-(methoxymethyl)-6-(4-methylthiazol-2-yl)pyridin-2-amine], for which the “SC100 (μM)” value is “++ (++ means 200 nM-1000 nM)”. In the case of `COC(=O)N1CC(Oc2cc(NC3CCC(F)(F)CC3)cc(-n3ccc(C)n3)c2)C1` [NSSy5934, methyl 3-(3-((4,4-difluorocyclohexyl)amino)-5-(3-methyl-1H-pyrazol-1-yl)phenoxy)azetidine-1-carboxylate], the “SC100 (μM)” value was “+ (+ means >1 uM)”. For `Cc1noc(-c2cc(N3CCOCC3)cc(NC3CCC(F)(F)CC3)n2)n1` [NSSy5957], the “SC100 (μM)” value is “+ (+ means >1 uM)”. As for `COC(=O)N1CC(Oc2cc(NC3CCC(F)(F)CC3)nc(-c3nc(C)no3)c2)C1` [NSSy5959], the entry is “+ (+ means >1 uM)”. Consider `COC(=O)N1CC(Oc2cc(NC3CCC(F)(F)CC3)cc(-c3nc(C)cs3)c2)C1` [NSSy5972, methyl 3-(3-((4,4-difluorocyclohexyl)amino)-5-(4-methylthiazol-2-yl)phenoxy) azetidine-1-carboxylate], for which the “SC100 (μM)” value is “+ (+ means >1 uM)”. Consider `COC(=O)N1CC(Oc2cc(NC3CC=C(C)CC3)nc(-c3nc(C)cs3)c2)C1` (stereo not shown) [NSSy5980, methyl 3-((2-((4-methylcyclohex-3-en-1-yl)amino)-6-(4-methylthiazol-2-yl)pyridin-4-yl)oxy)azetidine-1-carboxylate], for which the “SC100 (μM)” value is on record as “++ (++ means 200 nM-1000 nM)”.

In the case of `Cc1ccn(-c2cc(COc3ccc(F)cn3)cc(NC3CCC(F)(F)CC3)n2)n1` [NSSy5996], the “SC100 (μM)” value is on record as “++ (++ means 200 nM-1000 nM)”.

For the compound `Cc1csc(-c2nc(NC3CCC(F)(F)CC3)cc(OC3CCCn4nncc43)n2)n1` (stereo not shown) [NSSy6007], the “SC100 (μM)” value is reported as “++ (++ means 200 nM-1000 nM)”. As for `Cc1ccn(-c2cc(CN3CCCC3=O)cc(NC3CCC(F)(F)CC3)n2)n1` [NSSy6019, 1-((2-((4,4-difluorocyclohexyl)amino)-6-(3-methyl-1H-pyrazol-1-yl)pyridin-4-yl)methyl)pyrrolidin-2-one], the entry is “++ (++ means 200 nM-1000 nM)”; as for `Cc1cc(CN2CCC(F)(F)CC2)cc(-c2nc(C)cs2)c1` [NSSy6044, 2-(3-((4,4-difluoropiperidin-1-yl)methyl)-5-methylphenyl)-4-methyl thiazole], “+ (+ means >1 uM)”. As for `[2H]c1c(NC2CCC(F)(F)CC2)nc(-c2nc(C)cs2)nc1OC1CN(C(=O)OC)C1` [NSSy6045, methyl 3-((6-((4,4-difluorocyclohexyl)amino)-2-(4-methylthiazol-2-yl)pyrimidin-4-yl-5-d)oxy) azetidine-1-carboxylate], the entry is “+ (+ means >1 uM)”; as for `COC(=O)N1CC(Oc2cc(NC3CCC(F)(F)CC3)nc(-c3nc(CO)cs3)n2)C1` [NSSy6049, methyl 3-((6-((4,4-difluorocyclohexyl)amino)-2-(4-(hydroxymethyl)thiazol-2-yl)pyrimidin-4-yl)oxy)azetidine-1-carboxylate], “+ (+ means >1 uM)”. In the case of `COC(=O)N1CC(Oc2cc(NC3CCC(F)(F)CC3)nc(N3CCCC3)n2)C1` [NSSy6054], the “SC100 (μM)” value is reported as “+ (+ means >1 uM)”. On to `CC(=O)N1CCN(c2cc(NC3CCC(F)(F)CC3)nc(-c3nc(C)cs3)n2)CC1` [NSSy6055], for which the “SC100 (μM)” value was “+++ (+++ means <200 nM)”.

As for `Cc1csc(-c2nccc(NC3CCC(F)(F)CC3)n2)n1` [NSSy6056, N-(4,4-difluorocyclohexyl)-2-(4-methylthiazol-2-yl)pyrimidin-4-amine], the “SC100 (μM)” value is recorded as “++ (++ means 200 nM-1000 nM)”. As for `COC(=O)N1CC(Oc2ccnc(-c3nc(C)cs3)n2)C1` [NSSy6057], the entry is “+ (+ means >1 uM)”. `COC(=O)N1CC(Oc2cc(NC3CCC(F)(F)CC3)ncn2)C1` [NSSy6061, methyl 3-((6-((4,4-difluorocyclohexyl)amino)pyrimidin-4-yl)oxy) azetidine-1-carboxylate]: the “SC100 (μM)” value is given as “+ (+ means >1 uM)”. Regarding `Cc1csc(-c2nc(NC3CCC(F)(F)CC3)cc(N3CCS(=O)(=O)CC3)n2)n1` [NSSy6062], the “SC100 (μM)” value was “+++ (+++ means <200 nM)”. `Cc1cnc(-c2nc(NC3CCC(F)(F)CC3)cc(N3CCOCC3)n2)s1` [NSSy6067, N-(4,4-difluorocyclohexyl)-2-(5-methylthiazol-2-yl)-6-morpholinopyrimidin-4-amine]: the “SC100 (μM)” value is “+ (+ means >1 uM)”. As for `COC(=O)N1CC(Oc2cc(NC3CCC(F)(F)CC3)[n+]([O-])c(-n3ccc(C)n3)n2)C1` [NSSy6072, 6-((4,4-difluorocyclohexyl)amino)-4-((1-(methoxycarbonyl)azetidin-3-yl)oxy)-2-(3-methyl-1H-pyrazol-1-yl)pyrimidine 1-oxide], the entry is “+ (+ means >1 uM)”; as for `COC(=O)N1CC(Oc2cc(NC3CCC(C(F)(F)F)CC3)nc(-c3nc(C)cs3)n2)C1` (stereo not shown) [NSSy6078, methyl 3-((2-(4-methylthiazol-2-yl)-6-((4-(trifluoromethyl)cyclohexyl)amino)pyrimidin-4-yl)oxy) azetidine-1-carboxylate], “+ (+ means >1 uM)”.

`Cc1csc(-c2nc(O)cc(NC3CCC(F)(F)CC3)n2)n1` [NSSy6082, 6-((4,4-difluorocyclohexyl)amino)-2-(4-methylthiazol-2-yl)pyrimidin-4-ol]: the “SC100 (μM)” value is on record as “+ (+ means >1 uM)”.

On to `COC(=O)N1CC(Oc2cc(NC3C4CC5CC(C4)CC3C5)nc(-n3ccc(C)n3)n2)C1` (stereo not shown) [NSSy6091], for which the “SC100 (μM)” value is “++ (++ means 200 nM-1000 nM)”. Regarding `Cc1csc(-c2nc(NC3CCC(F)(F)CC3)cc(N3CCN(C)C(=O)C3)n2)n1` [NSSy6093], the “SC100 (μM)” value was “++ (++ means 200 nM-1000 nM)”.

Regarding `COC(=O)N1CC(Oc2cc(NC34CC5CC(CC(C5)C3)C4)nc(-n3ccc(C)n3)n2)C1` [NSSy6097], the “SC100 (μM)” value is “+++ (+++ means <200 nM)”.
